According to paper PMC11233931, “Remodeling tumor‐associated macrophage for anti‐cancer effects by rational design of irreversible inhibition of mitogen‐activated protein kinase‐activated protein kinase 2” (MedComm, 2024):

Tests used:
Assay in all cases: Eurofins kinase selectivity profile against 380 other human recombinant kinases (Table S2)
Format in all cases: biochemical
[1] = target: T1, 380 human recombinant protein kinases (Homo sapiens, UniProt Q6PHR2); details: ULK3(h), read-out: Inhibition rate (%)
T1 construct: purchased Eurofins (Celle Lévescault)
T1 sequence (Q6PHR2 1-472): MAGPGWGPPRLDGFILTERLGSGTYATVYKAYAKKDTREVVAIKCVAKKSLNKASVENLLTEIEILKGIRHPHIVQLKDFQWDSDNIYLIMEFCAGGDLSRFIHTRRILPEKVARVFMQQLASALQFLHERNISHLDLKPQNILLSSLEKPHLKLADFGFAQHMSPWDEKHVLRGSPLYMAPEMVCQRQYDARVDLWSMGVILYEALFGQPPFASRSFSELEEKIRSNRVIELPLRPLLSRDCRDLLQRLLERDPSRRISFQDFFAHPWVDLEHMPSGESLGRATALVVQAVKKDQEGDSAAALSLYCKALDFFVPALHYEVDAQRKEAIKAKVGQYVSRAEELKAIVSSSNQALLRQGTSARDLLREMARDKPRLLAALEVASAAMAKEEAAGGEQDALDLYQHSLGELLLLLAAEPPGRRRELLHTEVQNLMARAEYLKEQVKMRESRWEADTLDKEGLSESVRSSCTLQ
Method in brief: (§1)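 Outsourced panel: 380 human recombinant kinases; inhibitor tested at various concentrations; purpose: MK2 selectivity check.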

[2] = target: T2, 380 human recombinant protein kinases (Homo sapiens, UniProt Q9Y243); details: PKBγ(h), read-out: Inhibition rate
T2 construct: purchased Eurofins (Celle Lévescault)
T2 sequence (Q9Y243 whole entry): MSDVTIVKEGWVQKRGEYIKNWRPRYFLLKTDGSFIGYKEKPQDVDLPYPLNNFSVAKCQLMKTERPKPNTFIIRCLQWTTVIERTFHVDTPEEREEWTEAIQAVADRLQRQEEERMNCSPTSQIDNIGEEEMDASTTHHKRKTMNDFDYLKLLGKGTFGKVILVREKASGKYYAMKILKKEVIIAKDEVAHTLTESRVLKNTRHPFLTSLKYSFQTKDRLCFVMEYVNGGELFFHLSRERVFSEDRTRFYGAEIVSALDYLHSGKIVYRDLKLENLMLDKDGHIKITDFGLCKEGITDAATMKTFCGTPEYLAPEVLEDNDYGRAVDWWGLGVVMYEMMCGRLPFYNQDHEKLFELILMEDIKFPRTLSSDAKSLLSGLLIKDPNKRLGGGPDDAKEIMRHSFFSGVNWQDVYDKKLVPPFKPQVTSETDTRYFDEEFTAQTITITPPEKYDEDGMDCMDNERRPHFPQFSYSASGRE
Method in brief: as §1

[3] = target: T3, 380 human recombinant protein kinases (Homo sapiens, UniProt Q9P1W9); details: Pim-2(h), read-out: Inhibition rate
T3 construct: purchased Eurofins (Celle Lévescault)
T3 sequence (Q9P1W9 whole entry): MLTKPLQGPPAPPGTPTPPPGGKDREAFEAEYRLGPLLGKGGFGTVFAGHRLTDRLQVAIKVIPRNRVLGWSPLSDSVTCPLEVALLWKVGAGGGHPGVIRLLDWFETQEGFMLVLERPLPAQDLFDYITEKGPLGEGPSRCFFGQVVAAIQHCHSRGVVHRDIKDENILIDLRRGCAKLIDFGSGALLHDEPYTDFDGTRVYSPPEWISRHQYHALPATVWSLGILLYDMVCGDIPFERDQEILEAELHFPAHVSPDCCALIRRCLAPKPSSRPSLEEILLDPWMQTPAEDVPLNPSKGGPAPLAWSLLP
Method in brief: as §1

[4] = target: T4, 380 human recombinant protein kinases (Homo sapiens, UniProt P17948); details: Flt1(h), read-out: Inhibition rate
T4 construct: purchased Eurofins (Celle Lévescault)
T4 sequence (P17948 27-1338): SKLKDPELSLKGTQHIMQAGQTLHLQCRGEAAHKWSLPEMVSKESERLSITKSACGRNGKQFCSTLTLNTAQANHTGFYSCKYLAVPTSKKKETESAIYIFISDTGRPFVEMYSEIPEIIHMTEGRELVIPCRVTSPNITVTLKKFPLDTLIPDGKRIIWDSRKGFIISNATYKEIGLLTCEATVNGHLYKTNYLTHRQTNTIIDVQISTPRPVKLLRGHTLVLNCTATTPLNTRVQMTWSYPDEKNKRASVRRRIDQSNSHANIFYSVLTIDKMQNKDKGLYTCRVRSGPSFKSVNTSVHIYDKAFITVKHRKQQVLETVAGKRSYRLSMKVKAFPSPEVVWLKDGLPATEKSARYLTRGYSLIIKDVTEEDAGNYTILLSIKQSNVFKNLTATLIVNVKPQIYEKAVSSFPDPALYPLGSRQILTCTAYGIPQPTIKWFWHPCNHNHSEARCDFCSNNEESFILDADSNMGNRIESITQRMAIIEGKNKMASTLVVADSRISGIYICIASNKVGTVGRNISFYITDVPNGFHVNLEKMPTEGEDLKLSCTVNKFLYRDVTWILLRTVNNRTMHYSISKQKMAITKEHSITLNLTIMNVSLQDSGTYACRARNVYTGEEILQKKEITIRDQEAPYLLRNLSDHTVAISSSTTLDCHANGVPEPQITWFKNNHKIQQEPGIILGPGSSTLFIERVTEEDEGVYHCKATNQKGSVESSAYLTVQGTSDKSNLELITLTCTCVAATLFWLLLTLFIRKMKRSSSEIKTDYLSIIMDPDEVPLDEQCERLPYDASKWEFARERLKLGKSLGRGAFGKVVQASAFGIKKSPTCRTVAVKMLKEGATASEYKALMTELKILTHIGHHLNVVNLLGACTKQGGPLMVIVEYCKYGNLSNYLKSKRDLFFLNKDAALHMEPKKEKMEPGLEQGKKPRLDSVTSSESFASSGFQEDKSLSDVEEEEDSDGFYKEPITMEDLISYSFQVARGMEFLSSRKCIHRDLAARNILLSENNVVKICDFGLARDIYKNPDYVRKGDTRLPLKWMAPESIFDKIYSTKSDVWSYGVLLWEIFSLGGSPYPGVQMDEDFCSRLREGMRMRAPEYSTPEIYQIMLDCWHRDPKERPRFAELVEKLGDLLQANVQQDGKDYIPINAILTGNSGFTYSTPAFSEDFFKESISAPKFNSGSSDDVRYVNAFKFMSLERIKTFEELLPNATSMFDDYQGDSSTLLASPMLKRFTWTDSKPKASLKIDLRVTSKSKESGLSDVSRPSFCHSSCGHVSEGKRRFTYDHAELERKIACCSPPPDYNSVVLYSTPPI
Method in brief: as §1

[5] = target: T5, 380 human recombinant protein kinases (Homo sapiens, UniProt P11802); details: CDK4/cyclinD3(h), read-out: Inhibition rate
T5 construct: purchased Eurofins (Celle Lévescault)
T5 sequence (P11802 whole entry): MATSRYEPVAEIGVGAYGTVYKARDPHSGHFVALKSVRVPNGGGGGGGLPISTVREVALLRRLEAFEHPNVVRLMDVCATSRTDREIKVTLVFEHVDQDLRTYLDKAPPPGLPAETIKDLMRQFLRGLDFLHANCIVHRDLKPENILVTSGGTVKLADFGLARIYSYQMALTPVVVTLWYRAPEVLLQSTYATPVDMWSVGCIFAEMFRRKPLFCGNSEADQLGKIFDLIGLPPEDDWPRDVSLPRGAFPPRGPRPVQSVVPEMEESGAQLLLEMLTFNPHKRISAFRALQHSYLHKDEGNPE
Method in brief: as §1

[6] = target: T6, 380 human recombinant protein kinases (Homo sapiens, UniProt P07332); details: Fes(h), read-out: Inhibition rate
T6 construct: purchased Eurofins (Celle Lévescault)
T6 sequence (P07332 whole entry): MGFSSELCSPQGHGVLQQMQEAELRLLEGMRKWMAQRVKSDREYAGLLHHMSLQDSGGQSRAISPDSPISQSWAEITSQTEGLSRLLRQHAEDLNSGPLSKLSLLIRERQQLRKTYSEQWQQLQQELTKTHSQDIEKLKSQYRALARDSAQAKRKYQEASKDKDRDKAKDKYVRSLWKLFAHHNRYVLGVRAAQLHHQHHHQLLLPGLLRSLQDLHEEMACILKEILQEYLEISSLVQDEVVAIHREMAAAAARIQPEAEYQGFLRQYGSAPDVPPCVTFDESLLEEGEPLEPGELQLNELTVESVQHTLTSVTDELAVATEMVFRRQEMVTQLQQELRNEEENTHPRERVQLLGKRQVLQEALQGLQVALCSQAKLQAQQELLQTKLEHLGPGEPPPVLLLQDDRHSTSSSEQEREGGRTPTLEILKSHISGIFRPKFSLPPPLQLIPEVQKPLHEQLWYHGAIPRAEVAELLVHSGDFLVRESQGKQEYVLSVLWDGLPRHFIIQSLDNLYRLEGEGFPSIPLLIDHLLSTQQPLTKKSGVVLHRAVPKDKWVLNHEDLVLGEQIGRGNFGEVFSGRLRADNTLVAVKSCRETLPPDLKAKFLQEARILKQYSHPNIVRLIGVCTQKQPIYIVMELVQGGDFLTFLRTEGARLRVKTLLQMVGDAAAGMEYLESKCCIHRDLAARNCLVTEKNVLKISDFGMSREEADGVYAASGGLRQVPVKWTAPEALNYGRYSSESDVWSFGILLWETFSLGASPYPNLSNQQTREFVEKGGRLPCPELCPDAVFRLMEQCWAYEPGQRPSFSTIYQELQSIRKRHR
Method in brief: as §1

[7] = target: T7, 380 human recombinant protein kinases (Homo sapiens, UniProt P00519, Q252H); details: Abl (Q252H) (h), read-out: Inhibition rate
T7 construct: purchased Eurofins (Celle Lévescault)
Method in brief: as §1

[8] = target: T8, 380 human recombinant protein kinases (Homo sapiens, UniProt Q05655); details: PKCδ(h), read-out: Inhibition rate
T8 construct: purchased Eurofins (Celle Lévescault)
Method in brief: as §1

[9] = target: T9, 380 human recombinant protein kinases (Homo sapiens, UniProt Q9UQM7); details: CaMKIIα(h), read-out: Inhibition rate
T9 construct: purchased Eurofins (Celle Lévescault)
T9 sequence (Q9UQM7 whole entry): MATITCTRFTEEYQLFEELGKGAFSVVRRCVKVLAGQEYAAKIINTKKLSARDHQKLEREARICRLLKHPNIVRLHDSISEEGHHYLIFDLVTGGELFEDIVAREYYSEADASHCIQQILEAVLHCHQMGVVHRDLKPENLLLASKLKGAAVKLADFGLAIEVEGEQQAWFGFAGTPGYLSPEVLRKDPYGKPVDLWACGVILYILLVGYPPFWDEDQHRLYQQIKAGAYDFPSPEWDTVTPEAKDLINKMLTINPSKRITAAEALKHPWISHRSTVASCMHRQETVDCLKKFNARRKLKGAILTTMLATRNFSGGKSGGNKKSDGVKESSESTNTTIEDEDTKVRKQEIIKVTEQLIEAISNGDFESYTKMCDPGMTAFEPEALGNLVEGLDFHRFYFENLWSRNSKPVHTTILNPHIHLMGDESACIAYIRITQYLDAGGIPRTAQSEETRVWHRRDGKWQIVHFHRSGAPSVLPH
Method in brief: as §1

[10] = target: T10, 380 human recombinant protein kinases (Homo sapiens, UniProt P49674); details: CK1ε(h), read-out: Inhibition rate
T10 construct: purchased Eurofins (Celle Lévescault)
T10 sequence (P49674 whole entry): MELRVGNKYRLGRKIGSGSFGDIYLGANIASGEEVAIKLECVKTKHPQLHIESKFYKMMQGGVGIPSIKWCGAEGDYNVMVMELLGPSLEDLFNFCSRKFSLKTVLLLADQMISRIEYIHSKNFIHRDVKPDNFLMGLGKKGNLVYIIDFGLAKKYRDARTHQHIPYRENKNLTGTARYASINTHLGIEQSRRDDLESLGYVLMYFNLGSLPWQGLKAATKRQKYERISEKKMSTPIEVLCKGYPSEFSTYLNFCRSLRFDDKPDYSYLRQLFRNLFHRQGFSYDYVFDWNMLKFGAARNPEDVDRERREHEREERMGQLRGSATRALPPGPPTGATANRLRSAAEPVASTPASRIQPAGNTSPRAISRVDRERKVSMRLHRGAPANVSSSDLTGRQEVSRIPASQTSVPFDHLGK
Method in brief: as §1

[11] = target: T11, 380 human recombinant protein kinases (Homo sapiens, UniProt Q6SA08); details: TSSK4(h), read-out: Inhibition rate (%)
T11 construct: purchased Eurofins (Celle Lévescault)
T11 sequence (Q6SA08 1-328): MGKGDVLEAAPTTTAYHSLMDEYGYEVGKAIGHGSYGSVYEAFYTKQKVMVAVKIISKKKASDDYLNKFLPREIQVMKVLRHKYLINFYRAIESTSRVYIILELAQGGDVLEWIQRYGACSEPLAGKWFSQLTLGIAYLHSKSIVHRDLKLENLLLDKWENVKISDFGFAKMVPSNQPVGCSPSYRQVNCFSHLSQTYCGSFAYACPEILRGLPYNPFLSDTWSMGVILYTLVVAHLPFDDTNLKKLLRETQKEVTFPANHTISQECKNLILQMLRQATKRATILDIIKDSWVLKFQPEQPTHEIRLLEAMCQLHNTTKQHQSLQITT
Method in brief: as §1

[12] = target: T12, 380 human recombinant protein kinases (Homo sapiens, UniProt Q9BXA7); details: TSSK1(h), read-out: Inhibition rate (%)
T12 construct: purchased Eurofins (Celle Lévescault)
T12 sequence (Q9BXA7 1-367): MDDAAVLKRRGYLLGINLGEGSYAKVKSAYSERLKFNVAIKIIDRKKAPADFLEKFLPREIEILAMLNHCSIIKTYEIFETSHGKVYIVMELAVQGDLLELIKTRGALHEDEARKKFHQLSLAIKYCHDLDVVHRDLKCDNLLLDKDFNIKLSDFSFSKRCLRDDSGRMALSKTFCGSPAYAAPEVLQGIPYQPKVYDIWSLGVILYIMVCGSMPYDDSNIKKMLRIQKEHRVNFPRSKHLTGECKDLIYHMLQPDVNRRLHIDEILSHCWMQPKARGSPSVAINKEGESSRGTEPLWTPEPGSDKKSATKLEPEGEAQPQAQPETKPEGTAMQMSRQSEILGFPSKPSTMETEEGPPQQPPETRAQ
Method in brief: as §1

[13] = target: T13, 380 human recombinant protein kinases (Homo sapiens, UniProt P49759); details: CLK1(h), read-out: Inhibition rate
T13 construct: purchased Eurofins (Celle Lévescault)
T13 sequence (P49759 whole entry): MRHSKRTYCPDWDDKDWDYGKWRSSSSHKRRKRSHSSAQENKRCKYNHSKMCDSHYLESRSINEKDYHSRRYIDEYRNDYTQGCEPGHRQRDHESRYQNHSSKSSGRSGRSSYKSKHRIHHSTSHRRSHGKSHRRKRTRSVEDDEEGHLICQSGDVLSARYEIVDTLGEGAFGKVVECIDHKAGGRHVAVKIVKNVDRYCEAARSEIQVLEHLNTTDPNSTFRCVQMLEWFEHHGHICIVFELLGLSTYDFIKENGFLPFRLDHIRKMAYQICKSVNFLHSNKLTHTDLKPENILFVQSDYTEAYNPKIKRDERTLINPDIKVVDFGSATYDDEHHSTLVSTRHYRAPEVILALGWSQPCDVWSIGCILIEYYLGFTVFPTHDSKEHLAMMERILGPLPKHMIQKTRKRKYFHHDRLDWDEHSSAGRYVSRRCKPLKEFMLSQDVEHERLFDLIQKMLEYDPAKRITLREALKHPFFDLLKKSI
Method in brief: as §1

Structure (SMILES): C=CC(=O)Nc1cc(-c2cc(-c3cc4c([nH]3)CCNC4=O)ccn2)ccc1OC(F)(F)F [compound 11]
- inhibition at 0.01 µM ([1]; 10 nM): 8%
- inhibition at 0.1 µM ([1]; 100 nM): 3%
- inhibition at 1 µM ([1]; 1000 nM): -4%
- inhibition at 0.01 µM ([2]; 10 nM): 0%
- inhibition at 0.1 µM ([2]; 100 nM): 3%
- inhibition at 1 µM ([2]; 1000 nM): 9%
- inhibition at 0.01 µM ([3]; 10 nM): -3%
- inhibition at 0.1 µM ([3]; 100 nM): 5%
- inhibition at 1 µM ([3]; 1000 nM): 6%
- inhibition at 0.01 µM ([4]; 10 nM): -24%
- inhibition at 0.1 µM ([4]; 100 nM): -17%
- inhibition at 1 µM ([4]; 1000 nM): -11%
- inhibition at 0.01 µM ([5]; 10 nM): 3%
- inhibition at 0.1 µM ([5]; 100 nM): 0%
- inhibition at 1 µM ([5]; 1000 nM): 2%
- inhibition at 0.01 µM ([6]; 10 nM): -7%
- inhibition at 0.1 µM ([6]; 100 nM): -5%
- inhibition at 1 µM ([6]; 1000 nM): 0%
- inhibition at 0.01 µM ([7]; 10 nM): -6%
- inhibition at 0.1 µM ([7]; 100 nM): 5%
- inhibition at 1 µM ([7]; 1000 nM): 27%
- inhibition at 0.01 µM ([8]; 10 nM): 1%
- inhibition at 0.1 µM ([8]; 100 nM): 14%
- inhibition at 1 µM ([8]; 1000 nM): 9%
- inhibition at 0.01 µM ([9]; 10 nM): -3%
- inhibition at 0.1 µM ([9]; 100 nM): -4%
- inhibition at 1 µM ([9]; 1000 nM): -2%
- inhibition at 0.01 µM ([10]; 10 nM): -5%
- inhibition at 0.1 µM ([10]; 100 nM): 4%
- inhibition at 1 µM ([10]; 1000 nM): 34%
- inhibition at 0.01 µM ([11]; 10 nM): 3%
- inhibition at 0.1 µM ([11]; 100 nM): 5%
- inhibition at 1 µM ([11]; 1000 nM): 2%
- inhibition at 0.01 µM ([12]; 10 nM): 1%
- inhibition at 0.1 µM ([12]; 100 nM): 2%
- inhibition at 1 µM ([12]; 1000 nM): 7%
- inhibition at 0.01 µM ([13]; 10 nM): -7%
- inhibition at 0.1 µM ([13]; 100 nM): 12%
- inhibition at 1 µM ([13]; 1000 nM): 70%
